# Laboratory results published in patent US12139520B2 (priority 2020, dated 2024).
# Bridge positions count the residues as written; N and C are the ends. Square brackets hold non-standard residues; d marks the D form. Peptide text beside a SMILES is read from it. Hyp = O=C(O)[C@@H]1C[C@@H](O)CN1
# Assay: Physical stability of peptide analogues (Thioflavin T fibrillation)
# Assay type: physicochemical
# Conditions: maximum ThT signal normalized between hAMY maximum and buffer background; 40° C., shaking, four days; pH 7 per table title
# Experimental: General Protocols for Determination of Physical Stability of Peptide Analogues
# Peptides were dissolved in buffers (50 mM sodium acetate at pH 4 or 50 mM sodium phosphate at pH 7) and incubated for one hour. The samples were then divided into two replicates of 80 μl in a black 384 well plate (μ-clear, Greiner Bio-One) and mixed with Thioflavin T (ThT) to a final concentration of 4 μM. The plate was sealed and placed in a plate reader (CLARIOstar, BMG) where the temperature was set at 40° C. during the course of the experiment. The samples were further stressed by shaking the plate at 700 rpm (linear) for five minutes before every measurement. The fluorescence was measured every 10 min for four days by exciting the ThT at 450 nm and measuring the emission at 480 nm. For each peptide, the ThT signal over time was smoothened using Local Polynomial Regression fitting (LOESS) as implemented in the statistical programming environment R. For the smoothened data, the maximum ThT signal was normalized in percent between the maximum ThT signal for hAMY and the buffer background.
row,Compound,Max ThT signal (%)
1,CC[C@H](C)[C@H](NC(=O)[C@H](CCC(N)=O)NC(=O)[C@H](Cc1c[nH]cn1)NC(=O)[C@H](C)NC(=O)[C@H](CC(C)C)NC(=O)[C@H](CCCNC(=N)N)NC(=O)[C@H](CCC(N)=O)NC(=O)[C@@H](NC(=O)[C@@H](NC(=O)[C@@H]1CSSC[C@H](NC(=O)CN)C(=O)N[C@@H](CCCNC(=N)N)C(=O)N[C@@H]([C@@H](C)O)C(=O)NCC(=O)N[C@@H]([C@@H](C)O)C(=O)N1)[C@@H](C)O)C(C)C)C(=O)N[C@@H](Cc1ccc(O)cc1)C(=O)N[C@@H](CCC(N)=O)C(=O)N[C@@H](Cc1ccccc1)C(=O)N[C@H](C(=O)N[C@@H](CC(=O)O)C(=O)N[C@@H](CCCCN)C(=O)N[C@@H](CC(=O)O)C(=O)N[C@@H](CCCCN)C(=O)N[C@@H](CC(=O)O)C(=O)N[C@@H](CC(N)=O)C(=O)N[C@H](C(=O)N[C@@H](C)C(=O)N1CCC[C@H]1C(=O)N[C@@H](CCCNC(=N)N)C(=O)N[C@@H](CO)C(=O)N[C@@H](CC(N)=O)C(=O)N[C@H](C(=O)N[C@@H](CO)C(=O)N1CCC[C@H]1C(=O)N[C@@H](CC(N)=O)C(=O)NCC(=O)N[C@@H](Cc1ccc(O)cc1)C(N)=O)C(C)C)C(C)C)[C@@H](C)O [compound 172] (H-GCRTGTCTVQRLAHQIYQFTDKDKDNVAPRSNVSPNGY-NH2; disulfide 2-7; N-terminus assumed),13.900%
2,CC[C@H](C)[C@H](NC(=O)[C@H](CCC(N)=O)NC(=O)[C@H](Cc1c[nH]cn1)NC(=O)[C@H](C)NC(=O)[C@H](CC(C)C)NC(=O)[C@H](CCCNC(=N)N)NC(=O)[C@H](CCC(N)=O)NC(=O)[C@@H](NC(=O)[C@@H](NC(=O)[C@@H]1CSSC[C@H](NC(=O)CN)C(=O)N[C@@H](CCCNC(=N)N)C(=O)N[C@@H](Cc2ccccc2)C(=O)NCC(=O)N[C@@H]([C@@H](C)O)C(=O)N1)[C@@H](C)O)C(C)C)C(=O)N[C@@H](Cc1ccc(O)cc1)C(=O)N[C@@H](CCC(N)=O)C(=O)N[C@@H](Cc1ccccc1)C(=O)N[C@H](C(=O)N[C@@H](CC(=O)O)C(=O)N[C@@H](CCCCN)C(=O)N[C@@H](CC(=O)O)C(=O)N[C@@H](CCCCN)C(=O)N[C@@H](CC(=O)O)C(=O)N[C@@H](CC(N)=O)C(=O)N[C@H](C(=O)N[C@@H](C)C(=O)N1CCC[C@H]1C(=O)N[C@@H](CCCNC(=N)N)C(=O)N[C@@H](CO)C(=O)N[C@@H](CCCCN)C(=O)N[C@H](C(=O)N[C@@H](CO)C(=O)N1CCC[C@H]1C(=O)N[C@@H](CC(N)=O)C(=O)NCC(=O)N1C[C@H](O)C[C@H]1C(N)=O)C(C)C)C(C)C)[C@@H](C)O [compound 175] (H-GCRFGTCTVQRLAHQIYQFTDKDKDNVAPRSKVSPNG[Hyp]-NH2; disulfide 2-7),3.200%
3,CC[C@H](C)[C@H](NC(=O)[C@H](CCC(N)=O)NC(=O)[C@H](Cc1c[nH]cn1)NC(=O)[C@H](C)NC(=O)[C@H](CC(C)C)NC(=O)[C@H](CCCNC(=N)N)NC(=O)[C@H](CCC(N)=O)NC(=O)[C@@H](NC(=O)[C@@H](NC(=O)[C@@H]1CSSC[C@H](NC(=O)CN)C(=O)N[C@@H](CCCNC(=N)N)C(=O)N[C@@H]([C@@H](C)O)C(=O)NCC(=O)N[C@@H]([C@@H](C)O)C(=O)N1)[C@@H](C)O)C(C)C)C(=O)N[C@@H](Cc1ccc(O)cc1)C(=O)N[C@@H](CCC(N)=O)C(=O)N[C@@H](Cc1ccccc1)C(=O)N[C@H](C(=O)N[C@@H](CC(=O)O)C(=O)N[C@@H](CCCCN)C(=O)N[C@@H](CC(=O)O)C(=O)N[C@@H](CCCCN)C(=O)N[C@@H](CC(=O)O)C(=O)N[C@@H](CC(N)=O)C(=O)N[C@H](C(=O)N[C@@H](C)C(=O)N1CCC[C@H]1C(=O)N[C@@H](CCCNC(=N)N)C(=O)N[C@@H](CO)C(=O)N[C@@H](CCCCN)C(=O)N[C@H](C(=O)NCC(=O)N1CCC[C@H]1C(=O)N[C@@H](CCC(N)=O)C(=O)NCC(=O)N1C[C@H](O)C[C@H]1C(N)=O)C(C)C)C(C)C)[C@@H](C)O [compound 187] (H-GCRTGTCTVQRLAHQIYQFTDKDKDNVAPRSKVGPQG[Hyp]-NH2; disulfide 2-7; N-terminus assumed),1.600%
4,CC[C@H](C)[C@H](NC(=O)[C@H](CCC(N)=O)NC(=O)[C@H](Cc1c[nH]cn1)NC(=O)[C@H](C)NC(=O)[C@H](CC(C)C)NC(=O)[C@H](CCCNC(=N)N)NC(=O)[C@H](CCC(N)=O)NC(=O)[C@@H](NC(=O)[C@@H](NC(=O)[C@@H]1CSSC[C@H](NC(=O)CN)C(=O)N[C@@H](CCCNC(=N)N)C(=O)N[C@@H]([C@@H](C)O)C(=O)NCC(=O)N[C@@H]([C@@H](C)O)C(=O)N1)[C@@H](C)O)C(C)C)C(=O)N[C@@H](Cc1ccc(O)cc1)C(=O)N[C@@H](CCC(N)=O)C(=O)N[C@@H](Cc1ccccc1)C(=O)N[C@H](C(=O)N[C@@H](CC(=O)O)C(=O)N[C@@H](CCCCN)C(=O)N[C@@H](CC(=O)O)C(=O)N[C@@H](CCCCN)C(=O)N[C@@H](CC(=O)O)C(=O)N[C@@H](CC(N)=O)C(=O)N[C@H](C(=O)N[C@@H](C)C(=O)N1CCC[C@H]1C(=O)N[C@@H](CCCNC(=N)N)C(=O)N[C@H](C(=O)N[C@@H](CCCCN)C(=O)N[C@H](C(=O)N[C@@H](CO)C(=O)N1CCC[C@H]1C(=O)N[C@@H](CCC(N)=O)C(=O)NCC(=O)N1C[C@H](O)C[C@H]1C(N)=O)[C@@H](C)CC)[C@@H](C)O)C(C)C)[C@@H](C)O [compound 189] (H-GCRTGTCTVQRLAHQIYQFTDKDKDNVAPRTKISPQG[Hyp]-NH2; disulfide 2-7; N-terminus assumed),6.000%
5,CC[C@H](C)[C@H](NC(=O)[C@H](CCC(N)=O)NC(=O)[C@H](Cc1c[nH]cn1)NC(=O)[C@H](C)NC(=O)[C@H](CC(C)C)NC(=O)[C@H](CCCNC(=N)N)NC(=O)[C@H](CCC(N)=O)NC(=O)[C@@H](NC(=O)[C@@H](NC(=O)[C@@H]1CSSC[C@H](NC(=O)CN)C(=O)N[C@@H](CCCNC(=N)N)C(=O)N[C@@H]([C@@H](C)O)C(=O)NCC(=O)N[C@@H]([C@@H](C)O)C(=O)N1)[C@@H](C)O)C(C)C)C(=O)N[C@@H](Cc1ccc(O)cc1)C(=O)N[C@@H](CCC(N)=O)C(=O)N[C@@H](Cc1ccccc1)C(=O)N[C@H](C(=O)N[C@@H](CC(=O)O)C(=O)N[C@@H](CCCCN)C(=O)N[C@@H](CC(=O)O)C(=O)N[C@@H](CCCCN)C(=O)N[C@@H](CC(=O)O)C(=O)N[C@@H](CC(N)=O)C(=O)N[C@H](C(=O)N[C@@H](C)C(=O)N1CCC[C@H]1C(=O)N[C@@H](CCCNC(=N)N)C(=O)N[C@H](C(=O)N[C@@H](CCCCN)C(=O)N[C@H](C(=O)N[C@@H](CO)C(=O)N1CCC[C@H]1C(=O)N[C@@H](CC(N)=O)C(=O)NCC(=O)N[C@@H](Cc1ccc(O)cc1)C(N)=O)[C@@H](C)CC)[C@@H](C)O)C(C)C)[C@@H](C)O [compound 190] (H-GCRTGTCTVQRLAHQIYQFTDKDKDNVAPRTKISPNGY-NH2; disulfide 2-7),12.900%
6,CC[C@H](C)[C@H](NC(=O)[C@H](CCC(N)=O)NC(=O)[C@H](Cc1c[nH]cn1)NC(=O)[C@H](C)NC(=O)[C@H](CC(C)C)NC(=O)[C@H](CCCNC(=N)N)NC(=O)[C@H](CCC(N)=O)NC(=O)[C@@H](NC(=O)[C@@H](NC(=O)[C@@H]1CSSC[C@H](NC(=O)CN)C(=O)N[C@@H](CCCNC(=N)N)C(=O)N[C@@H]([C@@H](C)O)C(=O)NCC(=O)N[C@@H]([C@@H](C)O)C(=O)N1)[C@@H](C)O)C(C)C)C(=O)N[C@@H](Cc1ccc(O)cc1)C(=O)N[C@@H](CCC(N)=O)C(=O)N[C@@H](Cc1ccccc1)C(=O)N[C@H](C(=O)N[C@@H](CC(=O)O)C(=O)N[C@@H](CCCCN)C(=O)N[C@@H](CC(=O)O)C(=O)N[C@@H](CCCCN)C(=O)N[C@@H](CC(=O)O)C(=O)N[C@@H](CC(N)=O)C(=O)N[C@H](C(=O)N[C@@H](C)C(=O)N1CCC[C@H]1C(=O)N[C@@H](CCCNC(=N)N)C(=O)N[C@H](C(=O)N[C@@H](CCCCN)C(=O)N[C@H](C(=O)N[C@@H](CO)C(=O)N1CCC[C@H]1C(=O)N[C@@H](CC(N)=O)C(=O)NCC(=O)N1C[C@H](O)C[C@H]1C(N)=O)[C@@H](C)CC)[C@@H](C)O)C(C)C)[C@@H](C)O [compound 197] (H-GCRTGTCTVQRLAHQIYQFTDKDKDNVAPRTKISPNG[Hyp]-NH2; disulfide 2-7; N-terminus assumed),5.600%
7,CC[C@H](C)[C@@H]1NC(=O)[C@H](CCCNC(=N)N)NC(=O)[C@@H](NC(=O)CN)CSSC[C@@H](C(=O)N[C@H](C(=O)N[C@H](C(=O)N[C@@H](CCC(N)=O)C(=O)N[C@@H](CCCNC(=N)N)C(=O)N[C@@H](CC(C)C)C(=O)N[C@@H](C)C(=O)N[C@@H](Cc2c[nH]cn2)C(=O)N[C@@H](CCC(N)=O)C(=O)N[C@H](C(=O)N[C@@H](Cc2ccc(O)cc2)C(=O)N[C@@H](CCC(N)=O)C(=O)N[C@@H](Cc2ccccc2)C(=O)N[C@H](C(=O)N[C@@H](CC(N)=O)C(=O)N[C@@H](CCCCN)C(=O)N[C@@H](CC(=O)O)C(=O)N[C@@H](CCCCN)C(=O)N[C@@H](CC(=O)O)C(=O)N[C@@H](CC(N)=O)C(=O)N[C@H](C(=O)N[C@@H](C)C(=O)N2CCC[C@H]2C(=O)N[C@@H](CCCNC(=N)N)C(=O)N[C@@H](CO)C(=O)N[C@@H](CCCCN)C(=O)N[C@H](C(=O)N[C@@H](CO)C(=O)N2CCC[C@H]2C(=O)N[C@@H](CCC(N)=O)C(=O)N[C@H](C(=O)N2C[C@H](O)C[C@H]2C(N)=O)[C@@H](C)O)[C@@H](C)CC)C(C)C)[C@@H](C)O)[C@@H](C)CC)C(C)C)[C@@H](C)O)NC(=O)[C@H]([C@@H](C)O)NC(=O)CNC1=O [compound 198] (H-GCRIGTCTVQRLAHQIYQFTNKDKDNVAPRSKISPQT[Hyp]-NH2; disulfide 2-7; N-terminus assumed),4.200%
